Assay results taken from patent US9108929B2, “Quinazoline based EGFR inhibitors” (Curis, Inc., priority 2006, dated 2015).

Legend:
[1] = tested on: HDAC (HeLa nuclear extract); assay: HDAC fluorimetric assay (HDAC enzymatic activity); type: biochemical
Experimental: HDAC inhibitors are screened using an HDAC fluorimetric assay kit (AK-500, Biomol, Plymouth Meeting, Pa.).
Each assay is setup as follows: Defrost all kit components and keep on ice until use. Dilute HeLa nuclear extract 1:29 in Assay Buffer (50 mM Tris/Cl, pH 8.0, 137 mM NaCl, 2.7 mM KCl, 1 mM MgCl2). Prepare dilutions of Trichostatin A (TSA, positive control) and test compounds in assay buffer (5× of final concentration). Dilute Fluor de Lys™ Substrate in assay buffer to 100 uM (50 fold=2× final). Dilute Fluor de Lys™ developer concentrate 20-fold (e.g. 50 μl plus 950 μl Assay Buffer) in cold assay buffer. Second, dilute the 0.2 mM Trichostatin A 100-fold in the 1× Developer (e.g. 10 μl in 1 ml; final Trichostatin A concentration in the 1× Developer=2 μM; final concentration after addition to HDAC/Substrate reaction=1 μM). Add Assay buffer, diluted trichostatin A or test inhibitor to appropriate wells of the microtiter plate. Add diluted HeLa extract or other HDAC sample to all wells except for negative controls. Allow diluted Fluor de Lys™ Substrate and the samples in the microtiter plate to equilibrate to assay temperature (e.g. 25 or 37° C. Initiate HDAC reactions by adding diluted substrate (25 μl) to each well and mixing thoroughly.
Allow HDAC reactions to proceed for 1 hour and then stopped them by addition of Fluor de Lys™ Developer (50 μl). Incubate plate at room temperature (25° C.) for 10-15 min. Read samples in a microtiter-plate reading fluorimeter capable of excitation at a wavelength in the range 350-380 nm and detection of emitted light in the range 440-460 nm.

[2] = molecular target: T1, human EGFR (His672-Ala1210) (Homo sapiens, UniProt P00533); assay: EGFR kinase inhibition assay (HTScan EGF Receptor Kinase Assay Kit); type: biochemical
T1 construct: a construct expressing human EGFR (His672-Ala1210); GST (N); purchased Cell Signaling Technologies; host or cells: baculovirus expression system
T1 sequence (P00533 672-1210): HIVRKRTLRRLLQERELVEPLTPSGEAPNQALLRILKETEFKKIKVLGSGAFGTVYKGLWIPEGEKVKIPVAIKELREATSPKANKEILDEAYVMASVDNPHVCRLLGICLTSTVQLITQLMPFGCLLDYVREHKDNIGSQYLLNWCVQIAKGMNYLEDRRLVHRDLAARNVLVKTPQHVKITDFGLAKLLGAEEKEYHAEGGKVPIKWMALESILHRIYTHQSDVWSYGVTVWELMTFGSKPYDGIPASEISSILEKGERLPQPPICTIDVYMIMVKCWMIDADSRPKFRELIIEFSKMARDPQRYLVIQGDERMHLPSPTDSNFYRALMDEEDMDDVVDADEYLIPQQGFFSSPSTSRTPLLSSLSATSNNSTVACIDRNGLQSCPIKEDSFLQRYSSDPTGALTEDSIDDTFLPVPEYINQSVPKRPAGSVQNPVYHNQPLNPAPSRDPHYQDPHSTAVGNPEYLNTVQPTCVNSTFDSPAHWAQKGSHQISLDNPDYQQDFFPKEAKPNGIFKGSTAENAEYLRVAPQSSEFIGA
Experimental: The ability of compounds to inhibit receptor kinase (EGFR) activity can be assayed using HTSCAN™ EGF Receptor Kinase Assay Kits (Cell Signaling Technologies, Danvers, Mass.). […] The protein is purified by one-step affinity chromatography using glutathione-agarose.
Immediately transfer enzyme from −80° C. to ice. Allow enzyme to thaw on ice. […] Return immediately to ice. […] Incubate reaction plate at room temperature for 30 minutes. […] Add 100 μl/well primary antibody. Incubate at room temperature for 60 minutes. […] Add 100 μl/well diluted antibody. Incubate at room temperature for 30 minutes. Wash five times with 200 μl/well PBS/T. Add 100 μl/well DELFIA® Enhancement Solution. Incubate at room temperature for 5 minutes.

HER2/ErbB2 = HER2/ErbB2 (Homo sapiens, UniProt P04626); assay: HER2/ErbB2 inhibition; type: biochemical
Sequence of HER2/ErbB2 (P04626 23-1255): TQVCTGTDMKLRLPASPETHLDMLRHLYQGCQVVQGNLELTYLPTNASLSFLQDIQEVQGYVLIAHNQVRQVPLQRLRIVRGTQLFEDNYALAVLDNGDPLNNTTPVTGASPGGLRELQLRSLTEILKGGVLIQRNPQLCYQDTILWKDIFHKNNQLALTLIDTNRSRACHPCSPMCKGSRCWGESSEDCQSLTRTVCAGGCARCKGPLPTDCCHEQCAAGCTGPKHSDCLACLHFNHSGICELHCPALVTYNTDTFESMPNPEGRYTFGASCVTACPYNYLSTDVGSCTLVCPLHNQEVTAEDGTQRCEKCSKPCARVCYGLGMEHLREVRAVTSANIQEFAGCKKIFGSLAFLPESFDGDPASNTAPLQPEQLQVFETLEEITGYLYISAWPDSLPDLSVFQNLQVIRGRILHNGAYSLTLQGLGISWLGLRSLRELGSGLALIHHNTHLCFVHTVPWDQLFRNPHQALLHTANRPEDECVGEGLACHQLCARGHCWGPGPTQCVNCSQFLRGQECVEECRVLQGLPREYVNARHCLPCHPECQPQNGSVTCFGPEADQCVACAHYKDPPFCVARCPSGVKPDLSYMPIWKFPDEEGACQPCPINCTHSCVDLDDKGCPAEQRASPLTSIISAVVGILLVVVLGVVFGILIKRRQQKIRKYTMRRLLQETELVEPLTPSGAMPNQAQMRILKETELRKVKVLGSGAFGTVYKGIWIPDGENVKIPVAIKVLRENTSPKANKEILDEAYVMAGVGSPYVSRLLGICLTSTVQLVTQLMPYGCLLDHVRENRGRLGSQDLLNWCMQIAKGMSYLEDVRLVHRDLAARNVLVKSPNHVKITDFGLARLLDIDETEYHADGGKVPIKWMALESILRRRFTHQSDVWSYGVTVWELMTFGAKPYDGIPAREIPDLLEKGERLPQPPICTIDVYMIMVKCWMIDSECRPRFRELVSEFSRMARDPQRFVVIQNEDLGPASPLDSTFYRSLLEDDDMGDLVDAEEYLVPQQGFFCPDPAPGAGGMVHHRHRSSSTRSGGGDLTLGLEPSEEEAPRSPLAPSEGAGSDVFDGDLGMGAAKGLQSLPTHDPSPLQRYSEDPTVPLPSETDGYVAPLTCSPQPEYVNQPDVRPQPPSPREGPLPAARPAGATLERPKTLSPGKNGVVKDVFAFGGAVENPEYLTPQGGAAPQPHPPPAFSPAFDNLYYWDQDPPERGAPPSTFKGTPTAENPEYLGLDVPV

| IC50 [1] [nM] | IC50 [2] [nM] | melting point [°C] | IC50 (HER2/ErbB2) [nM] | SMILES |
| --- | --- | --- | --- | --- |
| > 10000 | < 100 |  |  | C#Cc1cc(Nc2ncnc3cc(OC)c(OCCCCCCC(=O)O)cc23)ccc1O |
|  |  | 161 to 163 |  | CCOC(=O)COc1ccc2ncnc(Nc3ccc(F)c(Cl)c3)c2c1 [Compound 0210-13, Ethyl 2-(4-(3-chloro-4-fluorophenylamino)quinazolin-6-yloxy)acetate] |
|  | < 100 |  |  | C#Cc1cccc(Nc2ncnc3cc(OC)c(OCCCCC(=O)O)cc23)c1 |
| > 10000 |  |  |  | C#Cc1cc(Nc2ncnc3cc(OC)c(OCCCCC(=O)O)cc23)ccc1O |
| > 10000 | < 100 |  | 100 to 1000 | C#Cc1cccc(Nc2ncnc3cc(OC)c(OCCCCCCC(=O)O)cc23)c1 |
